Source: PMC7465669, “Screening of Heteroaromatic Scaffolds against Cystathionine Beta-Synthase Enables Identification of Substituted Pyrazolo[3,4-c]Pyridines as Potent and Selective Orthosteric Inhibitors” (Molecules, 2020)

Molecular target: T1, cystathionine β-synthase (CBS) (Homo sapiens, UniProt P35520)
T1 construct: full-length human CBS, GST-fusion
T1 sequence (P35520 1-551): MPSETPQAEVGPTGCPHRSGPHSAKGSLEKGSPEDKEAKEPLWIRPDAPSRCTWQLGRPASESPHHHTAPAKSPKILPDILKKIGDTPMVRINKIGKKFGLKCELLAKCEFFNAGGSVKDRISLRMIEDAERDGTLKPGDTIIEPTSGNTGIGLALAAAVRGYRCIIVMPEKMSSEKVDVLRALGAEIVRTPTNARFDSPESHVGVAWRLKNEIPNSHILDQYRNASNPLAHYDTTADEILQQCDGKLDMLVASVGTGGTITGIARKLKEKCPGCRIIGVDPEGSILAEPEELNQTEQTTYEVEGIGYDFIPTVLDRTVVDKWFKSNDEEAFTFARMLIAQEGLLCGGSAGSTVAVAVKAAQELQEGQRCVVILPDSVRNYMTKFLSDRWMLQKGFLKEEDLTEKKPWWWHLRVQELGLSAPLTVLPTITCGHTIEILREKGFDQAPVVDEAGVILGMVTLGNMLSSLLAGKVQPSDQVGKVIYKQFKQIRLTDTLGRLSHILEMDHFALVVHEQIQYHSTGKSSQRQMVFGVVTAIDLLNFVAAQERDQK
Assay: methylene blue H2S assay, recombinant enzyme; confirmed by AzMC assay (IC50 […])
Format: biochemical

IC50: 11 µM
SMILES: COc1ccc(Cn2ncc3cc(Nc4ccc(N5CCN(C)CC5)cc4)nc(N4CCN(C)CC4)c32)cc1 [compound 1, 1]
